Results: PMC9279635 (Acta Pharmaceutica Sinica. B, 2021)

Key:
Assay type in all cases: biochemical
[1] = target: T1, DDR2 (Homo sapiens, UniProt Q16832); experiment: ELISA kinase assay, DDR2; conditions: DDR2 IC50, two separate experiments
T1 sequence (Q16832 22-855): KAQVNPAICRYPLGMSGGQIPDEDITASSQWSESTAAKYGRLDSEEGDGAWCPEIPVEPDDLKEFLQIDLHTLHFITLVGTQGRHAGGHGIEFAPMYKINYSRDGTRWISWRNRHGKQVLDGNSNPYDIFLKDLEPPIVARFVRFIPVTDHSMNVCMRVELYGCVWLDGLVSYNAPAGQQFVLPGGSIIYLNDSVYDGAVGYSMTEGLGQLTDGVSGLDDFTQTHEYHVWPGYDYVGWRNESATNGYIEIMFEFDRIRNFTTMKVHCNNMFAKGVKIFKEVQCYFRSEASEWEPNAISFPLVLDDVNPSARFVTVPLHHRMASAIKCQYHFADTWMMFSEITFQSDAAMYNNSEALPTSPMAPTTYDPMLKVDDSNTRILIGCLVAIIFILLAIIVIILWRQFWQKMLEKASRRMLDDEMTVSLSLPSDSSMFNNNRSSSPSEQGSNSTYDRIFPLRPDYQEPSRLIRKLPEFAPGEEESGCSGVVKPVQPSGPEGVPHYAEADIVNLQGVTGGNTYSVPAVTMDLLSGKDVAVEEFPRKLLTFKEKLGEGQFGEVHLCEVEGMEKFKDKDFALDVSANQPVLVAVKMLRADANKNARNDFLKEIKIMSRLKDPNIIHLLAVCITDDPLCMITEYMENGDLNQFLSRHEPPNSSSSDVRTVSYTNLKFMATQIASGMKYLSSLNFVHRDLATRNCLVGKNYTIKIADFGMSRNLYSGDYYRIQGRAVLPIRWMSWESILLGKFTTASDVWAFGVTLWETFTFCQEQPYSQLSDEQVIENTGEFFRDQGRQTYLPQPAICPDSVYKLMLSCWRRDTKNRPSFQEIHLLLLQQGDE

[2] = target: RET (Homo sapiens, UniProt P07949); experiment: ELISA kinase assay, RET; conditions: for inhibition at 0.01 µM: read-out: RET inhibition @10 nmol/L; for inhibition at 0.1 µM: read-out: RET inhibition @100 nmol/L
Chain of RET (P07949 29-1114): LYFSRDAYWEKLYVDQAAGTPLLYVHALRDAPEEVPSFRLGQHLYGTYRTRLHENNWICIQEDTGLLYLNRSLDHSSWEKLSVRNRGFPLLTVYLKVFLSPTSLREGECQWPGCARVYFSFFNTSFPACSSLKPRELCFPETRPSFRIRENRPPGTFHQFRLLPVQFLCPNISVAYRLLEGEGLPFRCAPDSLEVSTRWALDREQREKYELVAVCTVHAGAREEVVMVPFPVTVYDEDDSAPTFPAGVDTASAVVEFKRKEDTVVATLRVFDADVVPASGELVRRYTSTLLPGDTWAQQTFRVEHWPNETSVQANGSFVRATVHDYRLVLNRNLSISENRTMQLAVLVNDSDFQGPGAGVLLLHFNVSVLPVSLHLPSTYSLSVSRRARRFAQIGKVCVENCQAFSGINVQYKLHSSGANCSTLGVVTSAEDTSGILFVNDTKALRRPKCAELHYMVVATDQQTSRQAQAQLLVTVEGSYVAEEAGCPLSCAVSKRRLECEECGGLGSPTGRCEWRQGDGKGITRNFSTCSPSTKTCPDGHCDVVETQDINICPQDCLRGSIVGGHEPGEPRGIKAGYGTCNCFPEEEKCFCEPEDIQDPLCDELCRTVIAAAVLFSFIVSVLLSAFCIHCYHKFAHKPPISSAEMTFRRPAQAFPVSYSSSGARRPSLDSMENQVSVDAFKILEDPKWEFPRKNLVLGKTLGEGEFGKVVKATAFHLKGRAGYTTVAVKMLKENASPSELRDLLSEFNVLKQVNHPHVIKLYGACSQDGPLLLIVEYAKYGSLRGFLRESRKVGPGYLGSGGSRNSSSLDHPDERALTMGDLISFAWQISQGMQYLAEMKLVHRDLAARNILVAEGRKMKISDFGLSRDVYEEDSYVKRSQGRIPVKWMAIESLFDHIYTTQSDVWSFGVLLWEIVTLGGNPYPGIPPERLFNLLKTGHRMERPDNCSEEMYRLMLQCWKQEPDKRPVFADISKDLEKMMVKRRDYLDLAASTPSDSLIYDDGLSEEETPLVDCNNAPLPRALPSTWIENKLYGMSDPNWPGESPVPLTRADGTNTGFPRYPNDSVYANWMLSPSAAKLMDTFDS

[3] = target: T2, Flt-3 (Homo sapiens, UniProt P36888); experiment: ELISA kinase assay, Flt-3; conditions: for inhibition at 0.01 µM: read-out: Flt-3 inhibition @10 nmol/L; for inhibition at 0.1 µM: read-out: Flt-3 inhibition@100 nmol/L
T2 sequence (P36888 27-993): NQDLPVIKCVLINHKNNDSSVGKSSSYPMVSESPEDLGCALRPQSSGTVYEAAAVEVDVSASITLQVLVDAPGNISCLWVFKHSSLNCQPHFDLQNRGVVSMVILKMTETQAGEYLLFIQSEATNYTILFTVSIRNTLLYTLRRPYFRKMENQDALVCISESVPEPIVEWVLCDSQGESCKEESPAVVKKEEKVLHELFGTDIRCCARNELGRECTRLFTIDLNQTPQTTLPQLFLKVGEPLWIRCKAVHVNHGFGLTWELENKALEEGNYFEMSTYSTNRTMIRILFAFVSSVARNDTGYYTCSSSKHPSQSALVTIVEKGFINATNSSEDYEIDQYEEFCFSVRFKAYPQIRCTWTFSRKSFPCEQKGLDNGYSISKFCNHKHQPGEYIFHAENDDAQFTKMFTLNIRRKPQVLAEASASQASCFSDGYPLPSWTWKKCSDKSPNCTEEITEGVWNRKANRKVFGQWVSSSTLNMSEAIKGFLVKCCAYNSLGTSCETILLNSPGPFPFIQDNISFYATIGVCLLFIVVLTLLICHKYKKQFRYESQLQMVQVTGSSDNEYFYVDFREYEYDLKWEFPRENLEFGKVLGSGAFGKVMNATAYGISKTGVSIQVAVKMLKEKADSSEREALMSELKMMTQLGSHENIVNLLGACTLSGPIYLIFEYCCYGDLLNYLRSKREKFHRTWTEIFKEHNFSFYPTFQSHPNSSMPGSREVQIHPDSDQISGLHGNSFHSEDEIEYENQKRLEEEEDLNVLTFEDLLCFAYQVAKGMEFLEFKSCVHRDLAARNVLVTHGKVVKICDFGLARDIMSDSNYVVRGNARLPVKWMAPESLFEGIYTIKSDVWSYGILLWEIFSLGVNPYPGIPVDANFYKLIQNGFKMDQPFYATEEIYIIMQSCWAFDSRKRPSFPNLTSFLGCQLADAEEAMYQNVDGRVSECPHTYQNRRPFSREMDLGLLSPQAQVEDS

SMILES	IC50 [1] [nM]	further results
Cc1ccc(C(=O)Nc2cccc(C(F)(F)F)c2)cc1-c1ccc2c(c1)NC(=O)C2 [Compound 9, 4-Methyl-3-(2-oxoindolin-6-yl)-N-(3-(trifluoromethyl)phenyl)benzamide]	4.9 ± 1.1	
Cc1ccc(C(=O)Nc2cccc(C(F)(F)F)c2)cc1-c1ccc2c(c1)COCC2 [Compound 10, 3-(Isochroman-7-yl)-4-methyl-N-(3-(trifluoromethyl)phenyl)benzamide]	20.9 ± 5.2	
Cc1ccc(C(=O)Nc2cccc(C(F)(F)F)c2)cc1-c1ccc2ccncc2c1 [Compound 11, 3-(Isoquinolin-7-yl)-4-methyl-N-(3-(trifluoromethyl)phenyl)benzamide]	1.6 ± 0.1	
Cc1ccc(C(=O)Nc2cccc(C(F)(F)F)c2)cc1-c1ccc2cnccc2c1 [Compound 12, 3-(Isoquinolin-6-yl)-4-methyl-N-(3-(trifluoromethyl)phenyl)benzamide]	36.5 ± 1	
Cc1ccc(C(=O)Nc2cccc(C(F)(F)F)c2)cc1-c1ccc2ncncc2c1 [Compound 13, 4-Methyl-3-(quinazolin-6-yl)-N-(3-(trifluoromethyl)phenyl)benzamide]	2.6 ± 0.1	
Cc1ccc(C(=O)Nc2cccc(C(F)(F)F)c2)cc1-c1ccc2ncnc(N)c2c1 [Compound 14, 3-(4-Aminoquinazolin-6-yl)-4-methyl-N-(3-(trifluoromethyl)phenyl)benzamide]	3.8 ± 0.2	
Cc1ccc(C(=O)Nc2cccc(C(F)(F)F)c2)cc1-c1ccc2nc(N)ncc2c1 [Compound 15, 3-(2-Aminoquinazolin-6-yl)-4-methyl-N-(3-(trifluoromethyl)phenyl)benzamide]	1.9 ± 0.4	
Cc1ccc(C(=O)Nc2cccc(C(F)(F)F)c2)cc1-c1ccc2nc(NC3CC3)ncc2c1 [Compound 16, 3-(2-(Cyclopropylamino)quinazolin-6-yl)-4-methyl-N-(3-(trifluoromethyl)phenyl)benzamide]	9.9 ± 1	
Cc1ccc(C(=O)Nc2cccc(C(F)(F)F)c2)cc1-c1ccc2nc(NC3CCN(C)CC3)ncc2c1 [Compound 17, 4-Methyl-3-(2-((1-methylpiperidin-4-yl)amino)quinazolin-6-yl)-N-(3-(trifluoromethyl)phenyl)benzamide]	10.5 ± 1	
Cc1ccc(C(=O)Nc2cccc(C(F)(F)F)c2)cc1-c1ccc2nc(NCCN3CCOCC3)ncc2c1 [Compound 18, 4-Methyl-3-(2-((2-morpholinoethyl)amino)quinazolin-6-yl)-N-(3-(trifluoromethyl)phenyl)benzamide]	3.4 ± 0.7	
Cc1ccc(C(=O)Nc2cccc(C(F)(F)F)c2)cc1-c1ccc2nc(N3CCN(C)CC3)ncc2c1 [Compound 19, 4-Methyl-3-(2-(4-methylpiperazin-1-yl)quinazolin-6-yl)-N-(3-(trifluoromethyl)phenyl)benzamide]	42.4 ± 2.3	
Cc1ccc(C(=O)Nc2cccc(C(F)(F)F)c2)cc1-c1ccc2nc(Nc3ccc(N4CCN(C)CC4)cc3)ncc2c1 [Compound 20, 4-Methyl-3-(2-((4-(4-methylpiperazin-1-yl)phenyl)amino)quinazolin-6-yl)-N-(3-(trifluoromethyl)phenyl)benzamide]	5.7 ± 0.3	
Cc1ccc(C(=O)Nc2cccc(C(F)(F)F)c2)cc1-c1ccc2nc(Nc3cccc(N4CCN(C)CC4)c3)ncc2c1 [Compound 21, 4-Methyl-3-(2-((3-(4-methylpiperazin-1-yl)phenyl)amino)quinazolin-6-yl)-N-(3-(trifluoromethyl)phenyl)benzamide]	6.3 ± 0.5	
Cc1ccc(C(=O)Nc2cccc(C(F)(F)F)c2)cc1-c1ccc2nc(Nc3cnn(C)c3)nc(N)c2c1 [Compound 23, 3-(4-Amino-2-((1-methyl-1H-pyrazol-4-yl)amino)quinazolin-6-yl)-4-methyl-N-(3-(trifluoromethyl)phenyl)benzamide]	6.5 ± 1.5	
Cc1ccc(C(=O)Nc2cc(CN3CCN(C)CC3)cc(C(F)(F)F)c2)cc1-c1ccc2nc(Nc3cnn(C)c3)ncc2c1 [Compound 25, 4-Methyl-3-(2-((1-methyl-1H-pyrazol-4-yl)amino)quinazolin-6-yl)-N-(3-((4-methylpiperazin-1-yl)methyl)-5-(trifluoromethyl)phenyl)benzamide]	1.7 ± 0.3	inhibition at 0.01 µM [2]: 93.9%; inhibition at 0.01 µM [3]: 93.5%
Cc1ccc(C(=O)Nc2cc(CN3CCN(C(C)C)CC3)cc(C(F)(F)F)c2)cc1-c1ccc2nc(Nc3cnn(C)c3)ncc2c1 [Compound 26, N-(3-((4-Isopropylpiperazin-1-yl)methyl)-5-(trifluoromethyl)phenyl)-4-methyl-3-(2-((1-methyl-1H-pyrazol-4-yl)amino)quinazolin-6-yl)benzamide]	2.2 ± 0.3	inhibition at 0.01 µM [2]: 92.7%; inhibition at 0.01 µM [3]: 90.1%
Cc1ccc(C(=O)Nc2cc(CN3CCN(C4CCCC4)CC3)cc(C(F)(F)F)c2)cc1-c1ccc2nc(Nc3cnn(C)c3)ncc2c1 [Compound 27, N-(3-((4-Cyclopentylpiperazin-1-yl)methyl)-5-(trifluoromethyl)phenyl)-4-methyl-3-(2-((1-methyl-1H-pyrazol-4-yl)amino)quinazolin-6-yl)benzamide]	3.1 ± 1	inhibition at 0.01 µM [2]: 92.8%; inhibition at 0.01 µM [3]: 94.4%
CC(=O)N1CCN(Cc2cc(NC(=O)c3ccc(C)c(-c4ccc5nc(Nc6cnn(C)c6)ncc5c4)c3)cc(C(F)(F)F)c2)CC1 [Compound 28, N-(3-((4-Acetylpiperazin-1-yl)methyl)-5-(trifluoromethyl)phenyl)-4-methyl-3-(2-((1-methyl-1H-pyrazol-4-yl)amino)quinazolin-6-yl)benzamide]	1.8 ± 0.1	inhibition at 0.01 µM [2]: 91.8%; inhibition at 0.01 µM [3]: 92.4%
Cc1ccc(C(=O)Nc2cc(CN3CCCN(C)CC3)cc(C(F)(F)F)c2)cc1-c1ccc2nc(Nc3cnn(C)c3)ncc2c1 [Compound 30, 4-Methyl-N-(3-((4-methyl-1,4-diazepan-1-yl)methyl)-5-(trifluoromethyl)phenyl)-3-(2-((1-methyl-1H-pyrazol-4-yl)amino)quinazolin-6-yl)benzamide]	2.8 ± 0.2	inhibition at 0.01 µM [2]: 93.2%; inhibition at 0.01 µM [3]: 97%
Cc1ccc(C(=O)Nc2cc(CN3C[C@H]4CC[C@@H](C3)N4C)cc(C(F)(F)F)c2)cc1-c1ccc2nc(Nc3cnn(C)c3)ncc2c1 [Compound 31, 4-Methyl-3-(2-((1-methyl-1H-pyrazol-4-yl)amino)quinazolin-6-yl)-N-(3-(((1R,5S)-8-methyl-3,8-diazabicyclo[3.2.1]octan-3-yl)methyl)-5-(trifluoromethyl)phenyl)benzamide]	2.9 ± 0.2	inhibition at 0.01 µM [2]: 95%; inhibition at 0.01 µM [3]: 96%
CC(C)c1ccc(C(=O)Nc2cccc(C(F)(F)F)c2)cc1-c1ccc2nc(Nc3cnn(C)c3)ncc2c1 [Compound 34, 4-Isopropyl-3-(2-((1-methyl-1H-pyrazol-4-yl)amino)quinazolin-6-yl)-N-(3-(trifluoromethyl)phenyl)benzamide]		inhibition at 0.1 µM [2]: 54.5%; inhibition at 0.1 µM [3]: 56.8%
Cn1cc(Nc2ncc3cc(-c4cc(C(=O)Nc5cccc(C(F)(F)F)c5)ccc4C4CC4)ccc3n2)cn1 [Compound 35, 4-Cyclopropyl-3-(2-((1-methyl-1H-pyrazol-4-yl)amino)quinazolin-6-yl)-N-(3-(trifluoromethyl)phenyl)benzamide]		inhibition at 0.1 µM [2]: 50.7%; inhibition at 0.1 µM [3]: 37.1%
